The values below are quoted from earlier work in US20160287532A1 (SignPath Pharma Inc., priority 2015, published 2016).

Where two headings read alike, the source gives them in different places.

Series [1] concerns MMP-9. To be noted: MDA breast cancer cell line.
The subject of series [2] is MMP-3. Conditions: curcumin added to cell culture.
The subject of the next series is TIMP-4. To be noted: high concentrations of curcumin.
For the next series, the system named is acute pancreatitis. To be noted: acute pancreatitis mouse model.
Series [3] concerns MMP-3. To be noted: equine cartilage explants; dose dependent.
The test system of the next series is TIMP-3. Conditions: high concentrations of curcumin.
In a further series the test system is MMP-1. To be noted: human astroglioma cells.
Series [4] concerns MMP-9. Conditions: human astroglioma cells.
For series [5], the target named is T1, MMP-9 (Homo sapiens, UniProt P14780).
T1 construct: endogenous in cells; host or cells: human gastric epithelial cells infected with Helicobacter pylori
Conditions: helicobacter pylori infected cells; dose dependent.

For series [6] the following is noted: if injected intravenously.
Series [7] deals with MMP-3.
The next series concerns interferon-γ. Conditions: viral induced ARDS mouse model.
For the next series, the system named is IL-8. Conditions: monocytes, high glucose environment.
In a further series the test system is MMP-2. To be noted: A549 in vitro.
Another series relates to TIMP-1. Conditions: high concentrations of curcumin.

T1 sequence (P14780 94-707): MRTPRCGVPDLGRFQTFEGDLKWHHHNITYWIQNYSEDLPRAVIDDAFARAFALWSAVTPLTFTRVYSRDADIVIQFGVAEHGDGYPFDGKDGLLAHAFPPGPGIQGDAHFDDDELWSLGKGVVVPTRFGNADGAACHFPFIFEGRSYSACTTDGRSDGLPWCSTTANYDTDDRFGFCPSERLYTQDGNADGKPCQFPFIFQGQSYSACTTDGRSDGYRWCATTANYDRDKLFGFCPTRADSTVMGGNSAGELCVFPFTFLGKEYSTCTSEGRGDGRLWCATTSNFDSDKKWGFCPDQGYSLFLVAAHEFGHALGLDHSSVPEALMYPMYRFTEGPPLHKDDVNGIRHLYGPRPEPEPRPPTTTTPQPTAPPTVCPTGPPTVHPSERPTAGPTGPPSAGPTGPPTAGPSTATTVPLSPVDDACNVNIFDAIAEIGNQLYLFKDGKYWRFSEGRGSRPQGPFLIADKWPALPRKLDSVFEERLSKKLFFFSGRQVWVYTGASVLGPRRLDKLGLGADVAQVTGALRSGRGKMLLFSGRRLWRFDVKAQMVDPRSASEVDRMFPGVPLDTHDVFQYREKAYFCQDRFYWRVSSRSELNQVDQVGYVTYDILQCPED

As to `COc1cc(/C=C/C(=O)/C=C(O)/C=C/c2ccc(O)c(OC)c2)ccc1O` [curcumin, 1,7-bis(4-hydroxy-3-methoxyphenyl)-1,6-heptadiene-3,5-dione], the MMP-9 result in the series with MMP-9 [1] is given as “inhibited”; in the series on MMP-9 [4], “Suppression”. In addition, the MMP-3 entry with MMP-3 [2] is on record as “dose dependent suppression”. The TIMP-4 entry in the series on TIMP-4 is reported as “up-regulated”. Moreover, the pancreatic injury result in the series with acute pancreatitis was “decreased”. Further, the “IL-1β stimulated MMP-3 release” value in the series with MMP-3 [3] was “reduced”. Also, in the series on TIMP-3, the TIMP-3 entry was “up-regulated”. The MMP-1 result with MMP-1 is reported as “Suppression”. Moreover, at MMP-9 [5], the MMP-9 activity entry was “suppressed”. Moreover, the cardiopathy entry in series [6] was “QT prolongation”. For the same compound, the entries for the “Expression of IL-1β reduced” value with IL-1β (10 μM curcumin) and in the series on IL-1β (20 μM curcumin) were 70% and 75%, respectively. The MMP-3 expression reduced with MMP-3 [7] (10 μM curcumin) is given as 70%; in the series with MMP-3 [7] (20 μM curcumin), 75%. The “expression of interferon-γ” value in the series with interferon-γ is on record as “reduced”. Further, the “release of IL-8” value in the series on IL-8 is “markedly reduced”. Besides, the MMP-2 result in the series on MMP-2 is recorded as “Inhibition”. Moreover, the TIMP-1 result in the series on TIMP-1 is “up-regulated”.
